Experimental data from article PMC4749215, “Simvastatin Sodium Salt and Fluvastatin Interact with Human Gap Junction Gamma-3 Protein” (PLoS ONE, 2016).
Structures can show the parent of a compound that is named as a salt.

Target: T1, peptide A (contig29; N-terminal residues 1-25 of GJC3, hCx30.2/31.3) (Homo sapiens, UniProt Q8NFK1)
T1 construct: not the full-length connexin
T1 sequence (Q8NFK1 1-25): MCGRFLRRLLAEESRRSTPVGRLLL
Assay: surface plasmon resonance (ProteOn XPR36), immobilised biotinylated peptide
Format: binding
Conditions: PBS; 0-400 uM titration; N-terminal 25-residue peptide only

Compound	surface plasmon resonance (ProteOn XPR36), immobilised biotinylated peptide
CC1(C)[C@@H](OC(=O)CCC(=O)O)CC[C@]2(C)[C@H]3C(=O)C=C4[C@@H]5C[C@@](C)(C(=O)O)CC[C@]5(C)CC[C@@]4(C)[C@]3(C)CC[C@@H]12 [carbenoxolone disodium salt]	carbenoxolone, exhibited a pronounced binding interaction
CC(C)n1c(/C=C/C(O)CC(O)CC(=O)O)c(-c2ccc(F)cc2)c2ccccc21 (stereo not shown) [fluvastatin sodium salt]	fluvastatin sodium salt, more pronounced binding is seen to peptide A
O=C(O)c1cccnc1Nc1cccc(C(F)(F)F)c1 [niflumic acid]	concentration dependent binding profile of niflumic acid was observed with peptide A
CCC(C)(C)C(=O)O[C@H]1C[C@@H](C)C=C2C=C[C@H](C)[C@H](CC[C@@H](O)C[C@@H](O)CC(=O)O)[C@H]21 [simvastatin sodium salt]	simvastatin acid sodium salt exhibited a weak, concentration dependent binding profile
